Assay results taken from US9346815B2, “5-chloro-2-difluoromethoxyphenyl pyrazolopyrimidine compounds, compositions and methods of use thereof” (Genentech, Inc., priority 2014, dated 2016).

Experiments:
[1] = target: isolated recombinant JAK2 kinase domain (Homo sapiens (Human), UniProt O60674); test: JAK2 enzyme assay (Caliper LabChip, peptide phosphorylation); format: biochemical; details: 25 μM ATP
[2] = target: isolated recombinant JAK1 kinase domain (Homo sapiens (Human), UniProt P23458); test: JAK1 enzyme assay (Caliper LabChip, peptide phosphorylation); format: biochemical; details: isolated recombinant JAK1 kinase domain, 25 μM ATP
Chain of isolated recombinant JAK1 kinase domain (P23458 875-1153): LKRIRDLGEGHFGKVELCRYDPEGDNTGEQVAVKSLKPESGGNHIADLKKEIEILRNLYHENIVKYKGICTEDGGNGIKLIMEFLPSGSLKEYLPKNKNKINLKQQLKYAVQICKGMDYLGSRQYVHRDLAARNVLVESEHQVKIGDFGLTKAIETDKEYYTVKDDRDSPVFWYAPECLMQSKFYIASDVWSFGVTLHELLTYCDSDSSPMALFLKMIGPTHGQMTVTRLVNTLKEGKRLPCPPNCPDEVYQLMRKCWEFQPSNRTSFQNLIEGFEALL

[3] = tested on: JAK1-dependent STAT6 phosphorylation downstream of IL-13 stimulation in BEAS-2B human bronchial epithelial cells; test: JAK1 pathway assay in BEAS-2B cells (IL-13-pSTAT6, MSD); format: cell-based; details: read-out: IL13-pSTAT6 EC50 (uM)_BEAS-2B
Outline: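 TF-1 cells are starved of GM-CSF overnight and run in serum-free medium, while BEAS-2B cells stay in complete growth medium. Inhibition of STAT6 phosphorylation is measured by MSD.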

Chain of isolated recombinant JAK2 kinase domain (O60674 849-1124): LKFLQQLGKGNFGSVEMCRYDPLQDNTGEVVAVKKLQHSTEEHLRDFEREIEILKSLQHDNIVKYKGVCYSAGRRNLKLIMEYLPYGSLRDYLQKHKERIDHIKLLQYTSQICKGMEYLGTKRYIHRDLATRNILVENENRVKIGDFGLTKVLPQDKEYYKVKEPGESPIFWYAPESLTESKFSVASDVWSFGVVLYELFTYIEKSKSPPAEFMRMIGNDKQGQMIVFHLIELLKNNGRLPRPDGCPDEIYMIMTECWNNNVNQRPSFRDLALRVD

Ki [1]	Ki [2]	Structure (SMILES)	EC50 [3]
1.11 nM	0.49 nM	N#CCCCNC1CCN(C(=O)Cn2cc(NC(=O)c3cnn4cccnc34)c(-c3cc(Cl)ccc3OC(F)F)n2)CC1 [Example 456, N-(3-(5-chloro-2-(difluoromethoxy)phenyl)-1-(2-(4-(3-cyanopropyl-amino)piperidin-1-yl)-2-oxoethyl)-1H-pyrazol-4-yl)pyrazolo[1,5-a]pyrimidine-3-carboxamide]	0.041 µM
0.8 nM	0.31 nM	COC(=O)CN1CCN(C(=O)Cn2cc(NC(=O)c3cnn4cccnc34)c(-c3cc(Cl)ccc3OC(F)F)n2)CC1 [Example 322, methyl 2-[4-(2-[3-[5-chloro-2-(difluoromethoxy)phenyl]-4-[pyrazolo[1,5-a]pyrimidine-3-amido]-1H-pyrazol-1-yl]acetyl)piperazin-1-yl]acetate]	0.0411 µM
1.25 nM	0.42 nM	CN(C)C(=O)CN1CCN(CC2CCN(C(=O)Cn3cc(NC(=O)c4cnn5cccnc45)c(-c4cc(Cl)ccc4OC(F)F)n3)CC2)CC1 [Example 427, N-(3-(5-chloro-2-(difluoromethoxy)phenyl)-1-(2-(4-((4-(2-(dimethylamino)-2-oxoethyl)piperazin-1-yl)methyl)piperidin-1-yl)-2-oxoethyl)-1H-pyrazol-4-yl)pyrazolo[1,5-a]pyrimidine-3-carboxamide]	0.0224 µM
0.23 nM	0.21 nM	O=C(Nc1cn(CCNCc2ccc(O)cc2)nc1-c1cc(Cl)ccc1OC(F)F)c1cnn2cccnc12 [Example 328, N-[3-[5-chloro-2-(difluoromethoxy)phenyl]-1-(2-[[(4-hydroxyphenyl)methyl]amino]ethyl)-1H-pyrazol-4-yl]pyrazolo[1,5-a]pyrimidine-3-carboxamide]	0.0102 µM
0.61 nM	1.68 nM	CN(C)CC(O)Cn1cc(NC(=O)c2cnn3cccnc23)c(-c2cc(Cl)ccc2OC(F)F)n1 (stereo not drawn) [Example 404, N-(3-(5-chloro-2-(difluoromethoxy)phenyl)-1-(3-(dimethylamino)-2-hydroxypropyl)-1H-pyrazol-4-yl)pyrazolo[1,5-a]pyrimidine-3-carboxamide]	0.0078 µM
1.1 nM	0.39 nM	O=C(Nc1cn(CC(=O)N2CCN(CCN3CCSCC3)CC2)nc1-c1cc(Cl)ccc1OC(F)F)c1cnn2cccnc12 [Example 460, N-(3-(5-chloro-2-(difluoromethoxy)phenyl)-1-(2-oxo-2-(4-(2-thiomorpholinoethyl)piperazin-1-yl)ethyl)-1H-pyrazol-4-yl)pyrazolo[1,5-a]pyrimidine-3-carboxamide]	0.0068 µM
1.79 nM	0.44 nM	CN(C)CCOC(=O)C1(C)CCN(C(=O)Cn2cc(NC(=O)c3cnn4cccnc34)c(-c3cc(Cl)ccc3OC(F)F)n2)CC1 [Example 340, 2-(dimethylamino)ethyl 1-(2-[3-[5-chloro-2-(difluoromethoxy)phenyl]-4-[pyrazolo[1,5-a]pyrimidine-3-amido]-1H-pyrazol-1-yl]acetyl)-4-methylpiperidine-4-carboxylate]	0.009 µM
1.6 nM	0.93 nM	CN1CCN(C(=O)Cn2cc(NC(=O)c3cnn4cccnc34)c(-c3cc(Cl)ccc3OC(F)F)n2)CC1(C)C [Example 378, N-[3-[5-chloro-2-(difluoromethoxy)phenyl]-1-[2-oxo-2-(3,3,4-trimethylpiperazin-1-yl)ethyl]-1H-pyrazol-4-yl]pyrazolo[1,5-a]pyrimidine-3-carboxamide]	0.0874 µM
1.04 nM	0.48 nM	CC(c1ccccc1)N1CCN(C(=O)Cn2cc(NC(=O)c3cnn4cccnc34)c(-c3cc(Cl)ccc3OC(F)F)n2)CC1 (stereo not drawn) [Example 316, N-[3-[5-chloro-2-(difluoromethoxy)phenyl]-1-[2-oxo-2-[4-(1-phenylethyl)piperazin-1-yl]ethyl]-1H-pyrazol-4-yl]pyrazolo[1,5-a]pyrimidine-3-carboxamide]	0.142 µM
